Assay results as given in ChEMBL document CHEMBL3352497, “Design and optimization of novel 4-(2-fluorophenoxy)quinoline derivatives bearing a hydrazone moiety as c-Met kinase inhibitors” (Eur J Med Chem, 2014).

Legend:
HT-29 = test: cells; conditions: Homo sapiens, HT-29, 72 h
Description: Antiproliferative activity against human HT-29 cells assessed as inhibition of cell growth after 72 hrs by MTT assay

[1] = Antiproliferative activity against human U87MG cells assessed as inhibition of cell growth after 72 hrs by MTT assay; assay type: functional, cell-based, U-87MG ATCC; conditions: U-87 MG
[2] = Antiproliferative activity against human MKN45 cells assessed as inhibition of cell growth after 72 hrs by MTT assay; assay type: functional, cell-based; conditions: MKN-45, 72 h
cells = conditions: Homo sapiens, NCI-H460, 72 h
A549 = test: cells; conditions: Homo sapiens, A549, 72 h
Description: Antiproliferative activity against human A549 cells assessed as inhibition of cell growth after 72 hrs by MTT assay

[3] = target: Vascular endothelial growth factor receptor 2 (Homo sapiens, UniProt P35968); test: Inhibition of KDR (unknown origin)
[4] = target: Macrophage-stimulating protein receptor (Homo sapiens, UniProt Q04912); test: Inhibition of RON (unknown origin)
[5] = target: Epidermal growth factor receptor (Homo sapiens, UniProt P00533); test: Inhibition of EGFR (unknown origin)
[6] = target: T1, Receptor-type tyrosine-protein kinase FLT3 (Homo sapiens, UniProt P36888); test: Inhibition of FLT3 (unknown origin)
T1 sequence (P36888 whole entry): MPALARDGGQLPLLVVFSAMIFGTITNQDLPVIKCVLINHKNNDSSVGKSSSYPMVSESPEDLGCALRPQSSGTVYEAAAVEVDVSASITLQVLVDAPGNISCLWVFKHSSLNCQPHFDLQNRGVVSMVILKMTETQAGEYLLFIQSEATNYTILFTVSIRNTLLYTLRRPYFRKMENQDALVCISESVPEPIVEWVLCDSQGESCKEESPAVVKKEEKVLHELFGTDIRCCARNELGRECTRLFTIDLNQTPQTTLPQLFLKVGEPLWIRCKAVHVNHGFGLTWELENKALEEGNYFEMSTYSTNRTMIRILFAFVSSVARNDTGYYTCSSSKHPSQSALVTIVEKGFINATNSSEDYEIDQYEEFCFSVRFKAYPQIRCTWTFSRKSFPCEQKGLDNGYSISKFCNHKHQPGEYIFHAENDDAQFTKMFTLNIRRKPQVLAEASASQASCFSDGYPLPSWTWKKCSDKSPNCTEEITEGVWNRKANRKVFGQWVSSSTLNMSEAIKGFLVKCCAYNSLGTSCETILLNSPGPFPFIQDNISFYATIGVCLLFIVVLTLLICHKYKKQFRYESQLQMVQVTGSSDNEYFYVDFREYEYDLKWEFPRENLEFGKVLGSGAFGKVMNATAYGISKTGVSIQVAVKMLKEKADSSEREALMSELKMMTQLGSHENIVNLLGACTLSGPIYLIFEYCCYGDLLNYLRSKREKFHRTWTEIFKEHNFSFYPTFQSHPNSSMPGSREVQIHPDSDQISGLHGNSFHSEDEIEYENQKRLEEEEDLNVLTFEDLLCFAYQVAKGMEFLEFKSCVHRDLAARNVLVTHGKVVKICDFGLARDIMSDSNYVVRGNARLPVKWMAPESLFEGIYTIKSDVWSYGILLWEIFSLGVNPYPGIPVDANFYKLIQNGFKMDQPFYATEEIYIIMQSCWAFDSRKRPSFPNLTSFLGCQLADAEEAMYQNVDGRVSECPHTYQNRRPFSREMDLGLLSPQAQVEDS

[7] = target: Hepatocyte growth factor receptor (Homo sapiens, UniProt P08581); test: Inhibition of c-Met (unknown origin) using poly (Glu, Tyr) 4:1 substrate by HTRF assay
[8] = target: Mast/stem cell growth factor receptor Kit (Homo sapiens, UniProt P10721); test: Inhibition of c-KIT (unknown origin)
Chain of Mast/stem cell growth factor receptor Kit (P10721 whole entry): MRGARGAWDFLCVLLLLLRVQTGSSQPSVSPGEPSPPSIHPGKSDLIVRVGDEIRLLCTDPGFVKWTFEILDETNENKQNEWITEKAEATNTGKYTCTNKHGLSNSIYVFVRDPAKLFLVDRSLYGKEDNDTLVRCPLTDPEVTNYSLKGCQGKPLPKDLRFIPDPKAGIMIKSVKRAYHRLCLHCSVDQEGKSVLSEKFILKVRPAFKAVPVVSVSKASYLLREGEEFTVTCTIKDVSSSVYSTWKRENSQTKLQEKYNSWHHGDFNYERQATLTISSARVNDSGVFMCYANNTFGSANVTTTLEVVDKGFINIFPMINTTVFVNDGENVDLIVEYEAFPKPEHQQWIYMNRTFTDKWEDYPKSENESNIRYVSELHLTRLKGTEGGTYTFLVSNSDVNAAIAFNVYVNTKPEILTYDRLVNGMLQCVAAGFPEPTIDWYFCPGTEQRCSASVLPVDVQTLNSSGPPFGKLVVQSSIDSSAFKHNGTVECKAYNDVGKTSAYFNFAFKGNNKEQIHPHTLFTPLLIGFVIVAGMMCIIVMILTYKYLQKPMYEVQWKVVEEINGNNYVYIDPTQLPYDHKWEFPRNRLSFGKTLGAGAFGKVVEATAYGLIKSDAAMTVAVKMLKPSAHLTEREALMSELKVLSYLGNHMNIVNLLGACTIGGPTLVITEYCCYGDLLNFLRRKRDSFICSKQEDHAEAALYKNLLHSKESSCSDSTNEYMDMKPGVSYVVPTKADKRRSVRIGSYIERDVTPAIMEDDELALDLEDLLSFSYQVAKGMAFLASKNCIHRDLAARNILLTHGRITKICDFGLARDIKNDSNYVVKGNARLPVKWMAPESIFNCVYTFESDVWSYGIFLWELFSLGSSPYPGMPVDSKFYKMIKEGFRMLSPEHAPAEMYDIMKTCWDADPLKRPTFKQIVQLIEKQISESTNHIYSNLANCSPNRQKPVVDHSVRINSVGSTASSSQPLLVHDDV

Chain of Macrophage-stimulating protein receptor (Q04912 25-304 limits assumed): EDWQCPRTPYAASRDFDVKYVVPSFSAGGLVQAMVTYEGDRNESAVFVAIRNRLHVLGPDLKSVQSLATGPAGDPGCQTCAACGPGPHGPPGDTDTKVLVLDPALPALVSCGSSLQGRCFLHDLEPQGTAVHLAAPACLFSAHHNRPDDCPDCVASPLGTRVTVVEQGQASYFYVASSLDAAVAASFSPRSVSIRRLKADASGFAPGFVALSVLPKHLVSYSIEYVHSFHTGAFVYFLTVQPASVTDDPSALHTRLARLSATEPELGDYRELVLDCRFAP
Chain of Macrophage-stimulating protein receptor (Q04912 310-1400 limits assumed): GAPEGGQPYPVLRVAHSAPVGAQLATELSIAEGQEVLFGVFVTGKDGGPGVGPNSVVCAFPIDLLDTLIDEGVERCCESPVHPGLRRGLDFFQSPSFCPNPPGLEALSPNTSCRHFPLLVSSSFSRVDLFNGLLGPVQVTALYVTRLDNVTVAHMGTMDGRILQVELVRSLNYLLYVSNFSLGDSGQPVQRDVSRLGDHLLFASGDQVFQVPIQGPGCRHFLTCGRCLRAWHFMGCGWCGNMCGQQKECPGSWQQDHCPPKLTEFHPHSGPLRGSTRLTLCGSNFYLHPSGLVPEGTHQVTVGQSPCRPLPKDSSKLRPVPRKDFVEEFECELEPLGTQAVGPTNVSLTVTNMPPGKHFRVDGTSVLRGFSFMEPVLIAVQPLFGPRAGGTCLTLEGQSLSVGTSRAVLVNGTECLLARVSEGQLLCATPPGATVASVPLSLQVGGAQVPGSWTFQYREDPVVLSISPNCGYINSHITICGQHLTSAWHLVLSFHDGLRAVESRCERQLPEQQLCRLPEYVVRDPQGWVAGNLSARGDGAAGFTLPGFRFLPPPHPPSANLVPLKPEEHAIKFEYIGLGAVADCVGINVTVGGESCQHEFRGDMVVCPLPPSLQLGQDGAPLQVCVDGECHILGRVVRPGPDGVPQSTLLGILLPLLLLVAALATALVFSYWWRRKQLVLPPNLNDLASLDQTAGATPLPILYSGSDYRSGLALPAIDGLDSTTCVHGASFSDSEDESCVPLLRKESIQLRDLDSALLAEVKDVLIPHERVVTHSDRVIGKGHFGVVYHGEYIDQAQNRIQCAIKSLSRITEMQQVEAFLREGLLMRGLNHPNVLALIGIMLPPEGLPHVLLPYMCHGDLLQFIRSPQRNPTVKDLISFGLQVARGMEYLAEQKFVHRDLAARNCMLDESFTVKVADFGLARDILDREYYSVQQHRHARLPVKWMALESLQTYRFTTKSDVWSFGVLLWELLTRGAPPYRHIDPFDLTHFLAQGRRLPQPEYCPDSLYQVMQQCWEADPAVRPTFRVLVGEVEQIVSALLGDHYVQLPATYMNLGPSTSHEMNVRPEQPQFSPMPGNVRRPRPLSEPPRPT
Chain of Hepatocyte growth factor receptor (P08581 whole entry): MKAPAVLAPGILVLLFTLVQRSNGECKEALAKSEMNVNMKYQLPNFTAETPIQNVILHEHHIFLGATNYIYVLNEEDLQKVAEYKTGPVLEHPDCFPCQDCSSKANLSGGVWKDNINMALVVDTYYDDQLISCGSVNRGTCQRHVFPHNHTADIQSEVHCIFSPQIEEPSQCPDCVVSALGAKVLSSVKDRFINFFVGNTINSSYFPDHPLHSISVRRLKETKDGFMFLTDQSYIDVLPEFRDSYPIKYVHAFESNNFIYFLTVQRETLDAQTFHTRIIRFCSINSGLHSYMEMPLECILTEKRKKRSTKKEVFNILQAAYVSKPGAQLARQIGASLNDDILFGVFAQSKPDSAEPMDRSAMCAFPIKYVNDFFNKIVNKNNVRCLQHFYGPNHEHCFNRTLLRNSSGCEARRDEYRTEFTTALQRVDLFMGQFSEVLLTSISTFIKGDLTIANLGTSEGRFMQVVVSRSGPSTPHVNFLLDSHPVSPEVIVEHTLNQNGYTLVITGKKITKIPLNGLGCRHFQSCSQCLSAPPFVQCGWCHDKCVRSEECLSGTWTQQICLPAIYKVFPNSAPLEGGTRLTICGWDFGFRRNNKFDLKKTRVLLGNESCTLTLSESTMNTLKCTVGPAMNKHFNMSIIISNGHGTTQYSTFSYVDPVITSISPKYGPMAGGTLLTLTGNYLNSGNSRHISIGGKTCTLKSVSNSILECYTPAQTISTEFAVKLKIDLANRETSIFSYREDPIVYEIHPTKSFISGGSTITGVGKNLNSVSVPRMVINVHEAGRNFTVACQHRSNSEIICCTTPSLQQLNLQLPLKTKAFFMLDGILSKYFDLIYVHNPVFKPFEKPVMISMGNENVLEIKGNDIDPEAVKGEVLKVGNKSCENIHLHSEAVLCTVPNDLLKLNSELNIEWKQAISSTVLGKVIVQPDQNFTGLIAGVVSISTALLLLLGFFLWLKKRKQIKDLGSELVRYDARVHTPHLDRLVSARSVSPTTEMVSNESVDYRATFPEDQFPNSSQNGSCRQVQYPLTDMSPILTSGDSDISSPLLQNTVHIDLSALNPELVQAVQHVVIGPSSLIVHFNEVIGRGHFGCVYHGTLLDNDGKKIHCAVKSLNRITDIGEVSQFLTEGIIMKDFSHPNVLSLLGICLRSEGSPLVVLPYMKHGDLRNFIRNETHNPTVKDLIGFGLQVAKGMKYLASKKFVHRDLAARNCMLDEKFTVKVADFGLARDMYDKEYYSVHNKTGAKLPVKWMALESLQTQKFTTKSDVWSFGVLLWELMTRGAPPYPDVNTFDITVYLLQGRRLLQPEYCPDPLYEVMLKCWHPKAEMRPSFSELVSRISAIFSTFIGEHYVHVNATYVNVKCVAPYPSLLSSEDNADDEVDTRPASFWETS
Chain of Epidermal growth factor receptor (P00533 whole entry): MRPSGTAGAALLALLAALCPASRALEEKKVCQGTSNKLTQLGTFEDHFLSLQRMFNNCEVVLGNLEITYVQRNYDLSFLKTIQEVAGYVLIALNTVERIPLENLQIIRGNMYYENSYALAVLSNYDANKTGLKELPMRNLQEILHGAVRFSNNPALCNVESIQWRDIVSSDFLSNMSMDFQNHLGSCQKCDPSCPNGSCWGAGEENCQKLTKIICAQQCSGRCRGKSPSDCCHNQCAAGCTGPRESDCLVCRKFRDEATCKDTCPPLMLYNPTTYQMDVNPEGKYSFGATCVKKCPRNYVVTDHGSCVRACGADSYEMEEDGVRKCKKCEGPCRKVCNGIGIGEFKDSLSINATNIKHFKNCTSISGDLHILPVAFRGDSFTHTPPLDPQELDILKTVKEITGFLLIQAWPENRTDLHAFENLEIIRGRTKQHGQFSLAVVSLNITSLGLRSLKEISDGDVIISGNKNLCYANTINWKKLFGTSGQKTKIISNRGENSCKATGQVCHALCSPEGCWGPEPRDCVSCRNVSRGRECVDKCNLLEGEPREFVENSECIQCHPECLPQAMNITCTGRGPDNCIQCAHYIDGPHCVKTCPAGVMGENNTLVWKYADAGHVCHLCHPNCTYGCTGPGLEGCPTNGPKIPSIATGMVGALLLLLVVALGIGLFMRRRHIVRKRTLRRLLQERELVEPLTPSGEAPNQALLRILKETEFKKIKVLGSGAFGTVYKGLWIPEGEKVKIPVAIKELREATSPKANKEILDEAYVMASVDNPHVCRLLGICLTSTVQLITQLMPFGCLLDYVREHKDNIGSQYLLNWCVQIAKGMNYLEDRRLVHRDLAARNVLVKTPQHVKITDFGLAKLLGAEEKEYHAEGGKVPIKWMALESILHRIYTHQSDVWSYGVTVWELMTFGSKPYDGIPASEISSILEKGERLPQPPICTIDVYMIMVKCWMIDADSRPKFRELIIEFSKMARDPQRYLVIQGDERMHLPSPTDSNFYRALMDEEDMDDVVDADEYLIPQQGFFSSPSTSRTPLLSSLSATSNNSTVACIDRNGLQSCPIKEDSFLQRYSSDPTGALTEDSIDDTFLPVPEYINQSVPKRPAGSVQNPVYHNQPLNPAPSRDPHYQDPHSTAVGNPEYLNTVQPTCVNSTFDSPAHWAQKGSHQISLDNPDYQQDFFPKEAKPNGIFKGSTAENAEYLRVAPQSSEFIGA

| IC50 (HT-29) [nM] | IC50 (cells) [nM] | IC50 (A549) [nM] | IC50 [3] [nM] | IC50 [4] [nM] | IC50 [5] [nM] | IC50 [6] [nM] | IC50 [7] [nM] | IC50 [8] [nM] | Compound | IC50 [1] [nM] | IC50 [2] [nM] |
| --- | --- | --- | --- | --- | --- | --- | --- | --- | --- | --- | --- |
| 200 | 58 | 130 | – | – | – | – | – | – | COc1cc2c(Oc3ccc(CC(=O)N/N=C/c4ccc(OC(F)(F)F)cc4)cc3F)ccnc2cc1OCCCN1CCCC1 | 330 | 460 |
| 3940 | 1170 | 2980 | – | – | – | – | – | – | COc1cc(/C=N/NC(=O)Cc2ccc(Oc3ccnc4cc(OCCCN5CCOCC5)c(OC)cc34)c(F)c2)ccc1O | 5860 | 11200 |
| 2360 | 760 | 1220 | – | – | – | – | – | – | COc1cc2c(Oc3ccc(CC(=O)N/N=C/c4ccc[nH]4)cc3F)ccnc2cc1OCCCN1CCOCC1 | – | – |
| 440 | 99 | 280 | – | – | – | – | – | – | COc1cc2c(Oc3ccc(CC(=O)N/N=C(/C)c4ccccc4)cc3F)ccnc2cc1OCCCN1CCCC1 | 590 | 760 |
| 1300 | 310 | 560 | – | – | – | – | – | – | COc1cc2c(Oc3ccc(CC(=O)N/N=C/c4ccc(O)cc4)cc3F)ccnc2cc1OCCCN1CCOCC1 | 1700 | 3220 |
| 1720 | 450 | 960 | – | – | – | – | – | – | COc1ccc(/C=N/NC(=O)Cc2ccc(Oc3ccnc4cc(OCCCN5CCOCC5)c(OC)cc34)c(F)c2)cc1 | 2650 | 3910 |
| 280 | 72 | 170 | – | – | – | – | – | – | COc1cc2c(Oc3ccc(CC(=O)N/N=C(/C)c4ccc(F)cc4)cc3F)ccnc2cc1OCCCN1CCCC1 | 350 | 580 |
| 410 | 110 | 230 | – | – | – | – | – | – | COc1cc2c(Oc3ccc(CC(=O)N/N=C/c4ccccc4)cc3F)ccnc2cc1OCCCN1CCOCC1 | 480 | 820 |
| 290 | 83 | 190 | – | – | – | – | – | – | COc1cc2c(Oc3ccc(CC(=O)N/N=C(/C)c4ccc(Cl)cc4)cc3F)ccnc2cc1OCCCN1CCCC1 | – | – |
| 280 | 75 | 170 | – | – | – | – | – | – | COc1cc2c(Oc3ccc(CC(=O)N/N=C/c4ccc(Cl)cc4)cc3F)ccnc2cc1OCCCN1CCCC1 | 400 | 620 |
| 340 | 83 | 140 | – | – | – | – | – | – | COc1cc2c(Oc3ccc(CC(=O)N/N=C/c4ccccc4)cc3F)ccnc2cc1OCCCN1CCCC1 | 420 | 720 |
| 480 | 82 | 320 | – | – | – | – | – | – | COc1cc2c(Oc3ccc(CC(=O)N/N=C/c4ccccc4F)cc3F)ccnc2cc1OCCCN1CCCC1 | 810 | 980 |
| 3670 | 1080 | 2540 | – | – | – | – | – | – | COc1cc2c(Oc3ccc(CC(=O)N/N=C/c4ccc(O)c(Br)c4)cc3F)ccnc2cc1OCCCN1CCOCC1 | – | – |
| 800 | 220 | 400 | – | – | – | – | – | – | COc1cc2c(Oc3ccc(CC(=O)N/N=C/c4ccccc4)cc3F)ccnc2cc1OCCCN1CCCCC1 | 1020 | 1580 |
| 320 | 94 | 160 | – | – | – | – | – | – | COc1cc2c(Oc3ccc(CC(=O)N/N=C/c4ccncc4)cc3F)ccnc2cc1OCCCN1CCOCC1 | 500 | 790 |
| 480 | 100 | 250 | – | – | – | – | – | – | COc1cc2c(Oc3ccc(CC(=O)N/N=C/c4ccc(S(C)(=O)=O)cc4)cc3F)ccnc2cc1OCCCN1CCOCC1 | 680 | 1140 |

| IC50 (HT-29) [nM] | IC50 (cells) [nM] | IC50 (A549) [nM] | IC50 [3] [nM] | IC50 [4] [nM] | IC50 [5] [nM] | IC50 [6] [nM] | IC50 [7] [nM] | IC50 [8] [nM] | Compound | IC50 [1] [nM] | IC50 [2] [nM] |
| --- | --- | --- | --- | --- | --- | --- | --- | --- | --- | --- | --- |
| 450 | 130 | 290 | – | – | – | – | – | – | COc1cc2c(Oc3ccc(CC(=O)N/N=C(/C)c4ccc(C(F)(F)F)cc4)cc3F)ccnc2cc1OCCCN1CCCCC1 | 590 | 940 |
| 150 | 31 | 80 | 560 | 28.6 | > 100000 | 390 | 1.86 | 45 | COc1cc2c(Oc3ccc(CC(=O)N/N=C/c4ccc(C(F)(F)F)cc4)cc3F)ccnc2cc1OCCCN1CCCC1 | 290 | 370 |
| 2780 | 880 | 3190 | – | – | – | – | – | – | COc1cc2c(Oc3ccc(CC(=O)N/N=C/c4ccco4)cc3F)ccnc2cc1OCCCN1CCOCC1 | – | – |
| 810 | 170 | 340 | – | – | – | – | – | – | COc1cc2c(Oc3ccc(CC(=O)N/N=C/c4ccccc4)cc3F)ccnc2cc1OCCCN1CCC(C)CC1 | 970 | 2120 |
| 950 | 200 | 390 | – | – | – | – | – | – | COc1cc2c(Oc3ccc(CC(=O)N/N=C(/C)c4ccccc4)cc3F)ccnc2cc1OCCCN1CCC(C)CC1 | 1480 | 2690 |
| 780 | 180 | 410 | – | – | – | – | – | – | COc1cc2c(Oc3ccc(CC(=O)N/N=C(/C)c4ccc(O)cc4)cc3F)ccnc2cc1OCCCN1CCCC1 | 1160 | 1680 |
| 970 | 340 | 520 | – | – | – | – | – | – | COc1cc2c(Oc3ccc(CC(=O)N/N=C(/C)c4ccccc4)cc3F)ccnc2cc1OCCCN1CCCCC1 | 1380 | 1990 |
| 220 | 55 | 110 | – | – | – | – | – | – | COc1cc2c(Oc3ccc(CC(=O)N/N=C/c4ccc(C(F)(F)F)cc4)cc3F)ccnc2cc1OCCCN1CCOCC1 | 300 | 490 |
| 190 | 46 | 96 | – | – | – | – | – | – | COc1cc2c(Oc3ccc(CC(=O)N/N=C(/C)c4ccc(C(F)(F)F)cc4)cc3F)ccnc2cc1OCCCN1CCCC1 | 370 | 420 |
| 960 | 280 | 390 | – | – | – | – | – | – | COc1cc2c(Oc3ccc(CC(=O)N/N=C/c4cccs4)cc3F)ccnc2cc1OCCCN1CCOCC1 | 1150 | 1820 |
| 380 | 81 | 200 | – | – | – | – | – | – | COc1cc2c(Oc3ccc(CC(=O)N/N=C/c4ccc(OC(F)(F)F)cc4)cc3F)ccnc2cc1OCCCN1CCOCC1 | 450 | 690 |
| 25200 | 7140 | 23000 | – | – | – | – | – | – | COc1cc2c(Oc3ccc(CC(=O)N/N=C/C(C)C)cc3F)ccnc2cc1OCCCN1CCOCC1 | – | – |
| 260 | 71 | 170 | – | – | – | – | – | – | COc1cc2c(Oc3ccc(CC(=O)N/N=C(/C)c4ccc(C(F)(F)F)cc4)cc3F)ccnc2cc1OCCCN1CCOCC1 | 390 | 590 |
| 540 | 190 | 350 | – | – | – | – | – | – | COc1cc2c(Oc3ccc(CC(=O)N/N=C(/C)c4ccccc4)cc3F)ccnc2cc1OCCCN1CCOCC1 | 610 | 970 |
| 260 | 67 | 140 | – | – | – | – | – | – | COc1cc2c(Oc3ccc(CC(=O)N/N=C/c4ccc(F)cc4)cc3F)ccnc2cc1OCCCN1CCCC1 | 420 | 560 |
| 360 | 96 | 220 | – | – | – | – | – | – | COc1cc2c(Oc3ccc(CC(=O)N/N=C(/C)c4ccc(C(F)(F)F)cc4)cc3F)ccnc2cc1OCCCN1CCC(C)CC1 | 510 | 840 |
